Measured values published in ChEMBL document CHEMBL5223101, “Evolution of 3-(4-hydroxyphenyl)indoline-2-one as a scaffold for potent and selective anticancer activity” (RSC Med Chem, 2022).

Assay: Anticancer activity against human ECC-1 cells assessed as cell death at 1 uM by tryphan blue staining based cell counter analysis relative to control

With `Cc1cccc2c1NC(=O)C2(c1ccc(O)cc1)c1ccc(O)cc1` the cell death at 1 µM was < 20%.
